This is an account of results in US8338450B2, “Compounds as dipeptidyl peptidase IV (DPP IV) inhibitors” (Lupin Limited, priority 2007, dated 2012).

The target of one series is T1, human recombinant DPP-IV (Homo sapiens, UniProt P27487).
T1 construct: purchased R&D Systems, USA (or produced in-house)
Put plainly: Inhibition of human recombinant DPP-IV (Gly-Pro-AMC hydrolysis, fluorometric). As to conditions: for IC50: human recombinant DPP-IV, 50 μM Gly-Pro-AMC, 30 min at 30° C. The class given is biochemical. The procedure, abridged:
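Enzyme (10 ng) was preincubated 15 min at 30° C. with compound (10 and 100 nM screen; 8 concentrations 0.1-1000 nM) in Tris-HCl pH 7.4, NaCl, KCl, BSA. 50 μM Gly-Pro-AMC was added for 30 min at 30° C. and AMC fluorescence was read (ex 360/em 460 nm). Results are given as % inhibition versus vehicle or as IC50.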

Another series addresses T2, plasma DPP-IV (Rattus norvegicus, UniProt P14740).
T2 construct: from tissue; host or cells: EDTA-plasma of male Wistar rats dosed orally
The series can be described thus: Measurement of plasma DPP-IV activity in male Wistar rats after single oral dose. Type of series: in vivo. The conditions noted are these: 10 mg/kg, p.o.; for inhibition at 10 mg/kg: rat, po. The protocol: Overnight-fasted male animals were administered either vehicle or single oral doses of compounds. Blood samples were withdrawn from retro-bulbar venous plexus under anesthesia at several time points up to 24 h post-dose. EDTA-plasma was separated and DPP-IV activity was measured using a fluorometric assay. Assays were carried out in 96-well flat-bottom black microwell plates. A typical reaction contained 25 μl plasma, 50 μl of 50 μM substrate (Gly-Pro-AMC) and 25 μl assay buffer (25 mM Tris-HCl, pH 7.4, 140 mM NaCl, 10 mM KCl and 1% BSA) in a total reaction volume of 100 μl. Plasma samples were incubated with the substrate for 30 min at 30° C., following which the fluorescence was measured in a microplate fluorescence redaer (POLARstar Galaxy), with excitation and emission wavelengths set at 360 nm and 460 nm, respectively. Percent inhibition in plasma DPP-IV activity due to compounds was calculated by comparing with plasma from vehicle-treated animals.

Each structure is given as a SMILES string. Structures can show the parent of a compound that is named as a salt. Where two headings read alike, the source gives them in different places.

T1 sequence (P27487 whole entry): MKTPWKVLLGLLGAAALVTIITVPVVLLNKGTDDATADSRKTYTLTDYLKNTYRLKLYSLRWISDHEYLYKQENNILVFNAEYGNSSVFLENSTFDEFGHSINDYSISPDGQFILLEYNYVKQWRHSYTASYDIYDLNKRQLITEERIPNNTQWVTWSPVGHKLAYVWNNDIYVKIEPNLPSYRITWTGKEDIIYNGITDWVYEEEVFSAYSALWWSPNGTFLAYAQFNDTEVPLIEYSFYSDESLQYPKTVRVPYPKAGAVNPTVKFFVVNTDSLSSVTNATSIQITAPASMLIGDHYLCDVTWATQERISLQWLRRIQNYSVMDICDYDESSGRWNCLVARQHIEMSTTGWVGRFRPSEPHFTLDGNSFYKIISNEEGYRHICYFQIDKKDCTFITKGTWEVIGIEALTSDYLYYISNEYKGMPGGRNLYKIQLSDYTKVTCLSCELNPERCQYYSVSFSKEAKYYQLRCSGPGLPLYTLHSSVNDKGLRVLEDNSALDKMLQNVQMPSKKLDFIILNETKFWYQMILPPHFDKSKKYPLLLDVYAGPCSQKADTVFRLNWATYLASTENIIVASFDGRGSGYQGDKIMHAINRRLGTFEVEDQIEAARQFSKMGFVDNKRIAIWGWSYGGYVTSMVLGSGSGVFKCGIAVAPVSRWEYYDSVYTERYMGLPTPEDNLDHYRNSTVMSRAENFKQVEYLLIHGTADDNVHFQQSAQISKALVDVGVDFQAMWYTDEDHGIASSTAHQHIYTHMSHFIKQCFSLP
T2 sequence (P14740 37-767 limits assumed): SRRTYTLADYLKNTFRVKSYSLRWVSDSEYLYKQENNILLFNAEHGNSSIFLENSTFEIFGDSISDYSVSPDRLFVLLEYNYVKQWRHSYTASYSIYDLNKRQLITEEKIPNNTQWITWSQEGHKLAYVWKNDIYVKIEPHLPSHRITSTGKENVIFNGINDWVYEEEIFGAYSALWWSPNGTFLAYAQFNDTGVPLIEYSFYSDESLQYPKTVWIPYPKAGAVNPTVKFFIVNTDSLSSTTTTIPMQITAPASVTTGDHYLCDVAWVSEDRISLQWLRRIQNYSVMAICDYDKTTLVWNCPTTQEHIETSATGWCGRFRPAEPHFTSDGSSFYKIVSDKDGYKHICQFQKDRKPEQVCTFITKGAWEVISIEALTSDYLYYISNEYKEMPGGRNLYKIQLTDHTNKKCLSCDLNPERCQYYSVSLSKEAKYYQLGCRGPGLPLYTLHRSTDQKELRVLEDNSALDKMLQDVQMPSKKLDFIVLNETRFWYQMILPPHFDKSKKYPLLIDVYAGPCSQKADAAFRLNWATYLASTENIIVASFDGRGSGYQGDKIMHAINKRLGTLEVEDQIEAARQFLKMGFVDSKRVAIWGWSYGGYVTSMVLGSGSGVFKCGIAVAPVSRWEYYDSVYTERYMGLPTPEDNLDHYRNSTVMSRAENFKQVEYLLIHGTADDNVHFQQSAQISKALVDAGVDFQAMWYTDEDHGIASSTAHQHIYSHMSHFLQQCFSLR

In turn, `Cl.N[C@H](C(=O)N1CCC[C@H]1c1nn[nH]n1)C1CC2CCC(C1)N2C(=O)c1ccc(C(F)(F)F)cc1` (stereo partly drawn) [Compound 13, (2S)-1-{(2S)-2-Amino-2-[8-(4-trifluoromethyl-benzoyl)-8-aza-bicyclo[3.2.1]oct-3-yl]-exo-ethanoyl}-2-(2H-tetrazol-5-yl)pyrrolidine hydrochloride] gave a melting point of 244 to 246 °C. Further, the inhibition at 1 µM at human recombinant DPP-IV (compound 1000 nM, relative to vehicle controls, read-out: % inhibition at 1000 nM) was 21%.
Consider `N[C@H](C(=O)N1[C@H](C(=O)O)C[C@@H]2C[C@@H]21)C1CC2CCC(C1)N2C(=O)c1ccc2c(c1)OCO2` (stereo partly drawn) (as salt: hydrochloride) [Compound 46, (1S,3S,5S)-2-{(2S)-2-Amino-2-[8-(benzo[1,3]-dioxole-5-carbonyl)-8-aza-bicyclo[3.2.1]-oct-3-yl]-exo-ethanoyl}-2-azabicyclo[3.1.0]hexane-3-carboxylic acid hydrochloride], for which the melting point was 280 °C (dec.).
The compound `Cl.N#C[C@@H]1C[C@H](F)CN1C(=O)[C@@H](N)C1CC2CCC(C1)N2C(=O)c1ccc(C(F)(F)F)cc1` (stereo partly drawn) [Compound 15, (2S,4S)-1-{(2S)-2-Amino-2-[8-(4-trifluoromethyl-benzoyl)-8-aza-bicyclo[3.2.1]oct-3-yl]-exo-ethanoyl}-4-fluoro-pyrrolidine-2-carbonitrile hydrochloride salt] gave a melting point of 168 to 170 °C. In addition, the IC50 at human recombinant DPP-IV worked out at 1.72 nM.
On to `NC(=O)[C@@H]1C[C@@H]2C[C@@H]2N1C(=O)[C@@H](N)C1CC2CCC(C1)N2C(=O)c1ccc2c(c1)OCO2` (stereo partly drawn) (as salt: salt) [Compound 45, (1S,3S,5S)-2-{(2S)-2-Amino-2-[8-(benzo-[1,3]dioxole-5-carbonyl)-8-aza-bicyclo[3.2.1]oct-3-yl]-exo-ethanoyl}-2-azabicyclo[3.1.0]-hexane-3-carboxamide trifluoro acetic acid salt], for which the melting point was 154 to 156 °C.
`C#C[C@H]1CC[C@@H](C#N)N1C(=O)[C@@H](N)C1CC2CCC(C1)N2C(=O)c1ccnc(F)c1` (stereo partly drawn) (as salt: salt) [Compound 66, (2S,5R)-1-{(2S)-2-Amino-2-[8-(2-fluoropyridin-4-carbonyl)-8-aza-bicyclo[3.2.1]-oct-3-yl]-exo-ethanoyl}-5-ethynyl-pyrrolidin-2-carbonitrile trifluoro acetic acid salt] yielded a melting point of 199 to 200 °C.
The compound `C#C[C@H]1CC[C@@H](C#N)N1C(=O)[C@@H](N)C1CC2CCC(C1)N2C(=O)c1ccc(C(F)(F)F)cc1` (stereo partly drawn) (as salt: salt) [Compound 63, (2S,5R)-1-{(2S)-2-Amino-2-[8-(4-trifluoromethyl-benzoyl)-8-aza-bicyclo[3.2.1]oct-3-yl]-exo-ethanoyl}-5-ethynyl-pyrrolidin-2-carbonitrile trifluoro acetic acid salt] returned a melting point of 160 to 163 °C.
As for `N[C@H](C(=O)N1CC(F)C1)C1CC2CCC(C1)N2C(=O)c1ccncc1F` (stereo partly drawn) (as salt: trifluoroacetic acid salt) [Compound 62, {(2S)-2-Amino-2-[8-(3-fluoropyridine-4-carbonyl)-8-aza-bicyclo[3.2.1]-oct-3-yl]-exo-ethanoyl}-3-fluoroazetidine trifluoroacetic acid salt], the melting point fell in the range of 90 to 93 °C.
As for `N[C@H](C(=O)N1CCSC1)C1CC2CCC(C1)N2C(=O)c1ccc(C(F)(F)F)cc1` (stereo partly drawn) (as salt: trifluoroacetic acid salt) [Compound 21, 3-{(2S)-2-Amino-2-[8-(4-trifluoromethyl-benzoyl)-8-aza-bicyclo[3.2.1]-oct-3-yl]-exo-ethanoyl}-1,3-thiazolidin trifluoroacetic acid salt], the melting point was 123 to 125 °C.
On the same count and under the same terms, then `N#C[C@@H]1CCCN1C(=O)[C@@H](N)C1CC2CCC(C1)N2` (stereo partly drawn) (as salt: salt) [Compound 8, (2S)-1-{(2S)-2-Amino-2-[8-aza-bicyclo[3.2.1]oct-3-yl]-exo-ethanoyl}-pyrrolidin-2-carbonitrile trifluoro acetic acid salt], with 143 to 145 °C.
Still for that read-out and setting: the result for `N[C@H](C(=O)N1CCC[C@H]1C(=O)O)C1CC2CCC(C1)N2C(=O)c1ccc(C(F)(F)F)cc1` (stereo partly drawn) (as salt: trifluoroacetic acid salt) [Compound 11, (2S)-1-{(2S)-2-amino-2-[8-(4-trifluoromethyl-benzoyl)-8-aza-bicyclo[3.2.1]-oct-3-yl]-exo-ethanoyl}-pyrrolidin-2-carboxylic acid trifluoroacetic acid salt] reads 161 to 163 °C.
Take `N#C[C@@H]1CCCN1C(=O)[C@@H](N)C1CC2CCC(C1)N2C(=O)c1ccc(C(F)(F)F)cc1.O=C(O)C(F)(F)F` (stereo partly drawn) [Compound 2, (2S)-1-{(2S)-2-Amino-2-[8-(4-trifluoromethylbenzoyl)-8-aza-bicyclo[3.2.1]oct-3-yl]-exo-ethanoyl}-pyrrolidin-2-carbonitrile trifluoroacetic acid salt]: the IC50 at human recombinant DPP-IV turned out to be 1.3 nM. At plasma DPP-IV (4 h post-dose), the “Plasma DPP-IV Inhibition (%) 4 h” value worked out at 82%. In addition, the “Plasma DPP-IV Inhibition (%) 6 h” value at plasma DPP-IV (6 h post-dose) stood at 52%. On plasma DPP-IV (8 h post-dose), the “Plasma DPP-IV Inhibition (%) 8 h” value is recorded as 45%.
`N#C[C@@H]1C[C@@H]2C[C@@H]2N1C(=O)[C@@H](N)C1CC2CCC(C1)N2C(=O)c1ccnc(F)c1` (stereo partly drawn) (as salt: salt) [Compound 28, (1S,3S,5S)-2-{(2S)-2-amino-2-[8-(2-fluoropyridine-4-carbonyl)-8-aza-bicyclo[3.2.1]-oct-3-yl]-exo-ethanoyl}-2-azabicyclo[3.1.0]-hexane-3-carbonitrile trifluoro acetic acid salt] yielded a melting point of 112 to 115 °C.
`N#C[C@@H]1C[C@@H]2C[C@@H]2N1C(=O)[C@@H](N)[C@@H]1C[C@H]2CC[C@@H](C1)N2C(=O)c1ccncc1.O=C(O)C(F)(F)F` [Compound 25, (1S,3S,5S)-2-{(2S)-2-Amino-2-[8-(pyridine-4-carbonyl)-8-aza-bicyclo[3.2.1]oct-3-yl]-exo-ethanoyl}-2-azabicyclo[3.1.0]hexane-3-carbonitrile trifluoroacetic acid salt]: the concentration for half-maximal inhibition (IC50) at human recombinant DPP-IV came to 3.61 nM. For the same compound, the “Plasma DPP-IV Inhibition (%) 4 h” value on plasma DPP-IV (4 h post-dose) stood at 68%. The “Plasma DPP-IV Inhibition (%) 6 h” value on plasma DPP-IV (6 h post-dose) is recorded as 49%. For the same compound, at plasma DPP-IV (8 h post-dose), the “Plasma DPP-IV Inhibition (%) 8 h” value was 51%.
For the compound `N#C[C@@H]1CCCN1C(=O)[C@@H](N)C1CC2CCC(C1)N2C(=O)c1cc(F)c(F)cc1F` (stereo partly drawn) [Compound 1, (2S)-1-{(2S)-2-Amino-2-[8-(2,4,5-trifluorobenzoyl)-8-aza-bicyclo[3.2.1]oct-3-yl]-exo-ethanoyl}-pyrrolidin-2-carbonitrile trifluoroacetic acid salt], the IC50 at human recombinant DPP-IV stood at 2.2 nM. The inhibition at 10 mg/kg at plasma DPP-IV (4 h post-dose, read-out: Plasma DPP-IV Inhibition (%) 4 h) worked out at 85%; on plasma DPP-IV (6 h post-dose, read-out: Plasma DPP-IV Inhibition (%) 6 h), 56%; at plasma DPP-IV (8 h post-dose, read-out: Plasma DPP-IV Inhibition (%) 8 h) it was 44%.
In turn, `N#C[C@H]1CSCN1C(=O)[C@@H](N)C1CC2CCC(C1)N2C(=O)c1ccc(C(F)(F)F)cc1` (stereo partly drawn) (as salt: salt) [Compound 20, (4S)-3-{(2S)-2-Amino-2-[8-(4-trifluoromethyl-benzoyl)-8-aza-bicyclo[3.2.1]oct-3-yl]-exo-ethanoyl}-thiazolidin-4-carbonitrile trifluoroacetetic acid salt] showed a melting point of 159 to 161 °C.
